Source: US12226426B2, “Combination therapy” (IMPERIAL COLLEGE INNOVATIONS LIMITED, priority 2018, dated 2025)

Experiments:
alkB mutants = conditions: MMS 20 mM, alkB mutants compared with WT, FIG. 1
WT E. coli = test: Alkylating-agent sensitivity assay (colony forming units); conditions: MMS 20 mM, 30 minutes at 37° C., FIG. 1

With `COS(C)(=O)=O` [MMS, Methyl methanesulfonate] the “Sensitivity to MMS (CFU)” value (alkB mutants) was “significantly increased” and the “effect on bacterial growth (CFU)” value (WT E. coli) was “minimal effect on bacterial growth”.
